Earlier results in paper PMC4959786 (Clinical immunology (Orlando, Fla.), 2015).

Biological target: I-A^q (Mus musculus, UniProt P04227+P06342)
Settings: result in words, earlier work

Sequence of I-A^q (P04227 whole entry, looked up): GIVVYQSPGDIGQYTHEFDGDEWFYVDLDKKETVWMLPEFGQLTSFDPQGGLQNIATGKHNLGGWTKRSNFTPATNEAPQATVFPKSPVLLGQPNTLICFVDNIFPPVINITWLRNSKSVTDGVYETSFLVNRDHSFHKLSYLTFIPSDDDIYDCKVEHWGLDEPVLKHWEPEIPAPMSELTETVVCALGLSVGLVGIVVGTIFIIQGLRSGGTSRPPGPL
Sequence of I-A^q (P06342 whole entry, looked up): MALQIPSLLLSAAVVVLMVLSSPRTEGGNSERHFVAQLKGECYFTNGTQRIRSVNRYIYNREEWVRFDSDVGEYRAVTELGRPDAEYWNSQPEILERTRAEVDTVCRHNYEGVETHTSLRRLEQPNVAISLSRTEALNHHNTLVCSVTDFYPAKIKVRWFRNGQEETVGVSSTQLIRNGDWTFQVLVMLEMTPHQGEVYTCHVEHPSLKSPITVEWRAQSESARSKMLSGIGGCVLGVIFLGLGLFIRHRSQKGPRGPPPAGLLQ

In the case of GEBGABGNKGEQGPKGEBGP [A9], the “binding to I-A^q” value (ref [5], [6]) is listed as “binds very weakly” and the “binding affinity for I-A^q” value (ref [6]) is listed as “very weak binding affinity”.
